The values below come from patent US9120749B2, “Quinoline derivatives and MELK inhibitors containing the same” (ONCOTHERAPY SCIENCE, INC., priority 2010, dated 2015).

Structures can show the parent of a compound that is named as a salt.

The IC50 is the point on the concentration scale where inhibition reaches its midpoint.

In experiment [1] the test system is 22Rv1 cells. Put plainly: Cell-based assay: anti-proliferative activity, Cell Counting Kit-8, 72 hours (22Rv1). The note with it: Homo sapiens. In general terms: Tetrazolium assays rely on reduction of a dye to a coloured formazan, in cell work by metabolically active cells.
Experiment [2] has as its system DU4475 cells. Put plainly: Cell-based assay: anti-proliferative activity, Cell Counting Kit-8, 72 hours (DU4475). The note with it: Homo sapiens, DU-4475.
Experiment [3] concerns T47D cells. Put plainly: Cell-based assay: anti-proliferative activity, Cell Counting Kit-8, 72 hours (T47D). The note with it: Homo sapiens, T47D, 72 h. An outline of the steps:
(§1)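 Cellular growth is read by CCK-8 colorimetric kit 72 h after inhibitor addition to seeded cells, and IC50 values are derived from the resulting data; MELK protein levels in these lines are checked beforehand by immunoblotting whole crude lysate.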

The subject of experiment [4] is HT-1197 cells. Description: Cell-based assay: anti-proliferative activity, Cell Counting Kit-8, 72 hours (HT-1197, negative control without MELK expression). The note with it: Homo sapiens, HT1197, 72 h, HT1197 cells (negative control), 72 hours. An outline of the steps:
as §1

In experiment [5] the target is MELK (Homo sapiens, UniProt Q14680). Description: Kinase assay: MELK activity, phosphorylation of FITC-labeled histone H3 peptide measured by IMAP fluorescence polarization. In kind it is biochemical. The note with it: MELK kinase assay, IMAP fluorescence polarization, 50 micro-M ATP; read-out: IC50 (μM) (kinase assay). An outline of the steps: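 FP readout: FITC-histone H3 peptide phosphorylation, read 0.5 h (RT) after stopping with 3x volume of IMAP progressive binding solution. Final DMSO 1%.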

The subject of experiment [6] is A549 cells. Put plainly: Cell-based assay: anti-proliferative activity, Cell Counting Kit-8, 72 hours (A549). The note with it: Homo sapiens, A549, 72 h, 72 hours. Put shortly: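 A549 cells seeded in 96-well plates and exposed to candidate inhibitors for 72 hours. Growth measured with Cell Counting Kit-8; IC50 values calculated from the dose response.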

Chain of MELK (Q14680 whole entry, looked up): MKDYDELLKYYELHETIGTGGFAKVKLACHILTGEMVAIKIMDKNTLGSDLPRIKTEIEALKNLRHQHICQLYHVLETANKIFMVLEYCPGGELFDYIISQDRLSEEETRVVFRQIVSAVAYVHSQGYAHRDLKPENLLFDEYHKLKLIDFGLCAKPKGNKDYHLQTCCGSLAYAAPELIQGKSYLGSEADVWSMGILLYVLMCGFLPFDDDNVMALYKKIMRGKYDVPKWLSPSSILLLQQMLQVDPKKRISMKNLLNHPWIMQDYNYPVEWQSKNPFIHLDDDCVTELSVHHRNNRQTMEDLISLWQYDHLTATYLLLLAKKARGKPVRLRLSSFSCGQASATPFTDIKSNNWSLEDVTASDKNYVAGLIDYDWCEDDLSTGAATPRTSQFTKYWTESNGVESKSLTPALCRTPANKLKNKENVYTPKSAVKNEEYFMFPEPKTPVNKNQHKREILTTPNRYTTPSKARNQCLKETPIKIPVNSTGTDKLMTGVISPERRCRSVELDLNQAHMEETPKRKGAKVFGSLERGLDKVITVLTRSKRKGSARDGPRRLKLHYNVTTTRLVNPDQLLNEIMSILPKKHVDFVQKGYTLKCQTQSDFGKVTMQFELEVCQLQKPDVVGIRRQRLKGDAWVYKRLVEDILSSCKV

Turning to `CC(=O)c1cnc2ccc(-c3ccc(O)cc3)cc2c1N[C@H]1CC[C@H](CN(C)C)CC1` [Example 935, 1-(4-(1R,4R)-4-((dimethylamino)methyl)cyclohexylamino)-6-(4-hydroxyphenyl)quinolin-3-yl) ethanone dihydrochloride], the IC50 in experiment [1] came to 0.53 µM; in experiment [2], 1.5 µM; in experiment [3], 1.6 µM; in experiment [4], 4.3 µM; in experiment [5] it was 0.08 µM; in experiment [6], 0.86 µM.

Consider `CN(C)C1CCN(c2ccc(Nc3c(S(C)(=O)=O)cnc4ccc(-c5cc(F)c(O)c(Cl)c5)cc34)cn2)C1` (stereo not drawn) [Example 889, 2-chloro-4-(4-((6-(3-(dimethylamino)pyrrolidin-1-yl)pyridin-3-yl)amino)-3-(methylsulfonyl)quinolin-6-yl)-6-fluorophenol hydrochloride], for which the IC50 came out at 1.8 µM in experiment [1]; 1.2 µM in experiment [2]; 1.5 µM in experiment [3]; 12 µM in experiment [4]; 0.0092 µM in experiment [5]; 2.5 µM in experiment [6].

As for `CC(=O)c1cnc2ccc(-c3cc(Cl)c(O)c(Cl)c3)cc2c1Nc1cnc(C)c(CCN2CCCC2)c1` [Example 871, 1-(6-(3,5-dichloro-4-hydroxyphenyl)-4-((6-methyl-5-(2-(pyrrolidin-1-yl)ethyl)pyridin-3-yl)amino)quinolin-3-yl)ethanone], the IC50 was 0.82 µM in experiment [1]; 0.33 µM in experiment [2]; 1.8 µM in experiment [3]; 25 µM in experiment [4]; 0.0028 µM in experiment [5]; 0.4 µM in experiment [6].

Consider `CN1CCC(n2cc(Nc3c(S(C)(=O)=O)cnc4ccc(-c5cc(Cl)c(O)c(Cl)c5)cc34)cn2)CC1` [Example 899, 2,6-dichloro-4-(4-((1-(1-methyl-piperidin-4-yl)-1H-pyrazol-4-yl)amino)-3-(methylsulfonyl)quinolin-6-yl)phenol hydrochloride], for which the IC50 stood at 1.5 µM in experiment [1]; 0.26 µM in experiment [2]; 1.6 µM in experiment [3]; 10 µM in experiment [4]; 0.0017 µM in experiment [5]; 4 µM in experiment [6].

On to `CC(=O)c1cnc2ccc(-c3ccc4cc(O)ccc4c3)cc2c1N[C@H]1CC[C@H](CN(C)C)CC1` [Example 929, 1-(4-((1R,4R)-4-((dimethylamino)methyl)cyclohexyl)amino)-6-(6-hydroxynaphthalen-2-yl)quinolin-3-yl)ethanone hydrochloride], for which the IC50 in experiment [1] is 0.71 µM; in experiment [2], 2.8 µM; in experiment [3] it was 3.3 µM; in experiment [4] it was 3.9 µM; in experiment [5], 0.064 µM; in experiment [6], 0.87 µM.

Take `COc1cc(-c2ccc3ncc(C(=O)C4CCCC4)c(Nc4cccc(CCN5CCCC5)c4)c3c2)cc(Cl)c1O` [Example 924, (6-(3-chloro-4-hydroxy-5-methoxy-phenyl)-4-((3-(2-(pyrrolidin-1-yl)ethyl)phenyl)amino)quinolin-3-yl) (cyclopentyl)methanone hydrochloride]: the IC50 in experiment [1] was determined as 3 µM; in experiment [2] it was 1.8 µM; in experiment [3] it was 3.2 µM; in experiment [4] it was 3.3 µM; in experiment [5], 0.018 µM; in experiment [6] it was 3.7 µM.

As to `CC(=O)c1cnc2ccc(-c3cc(F)c(O)c(Cl)c3)cc2c1N[C@H]1CC[C@H](C(=O)NCCN(C)C)CC1` [Example 893, (1r,4r)-4-((3-acetyl-6-(3-chloro-5-fluoro-4-hydroxyphenyl)quinolin-4-yl)amino)-N-(2-(dimethylamino)ethyl) cyclohexanecarboxamide hydrochloride], the IC50 amounted to 1.6 µM in experiment [1]; 0.67 µM in experiment [2]; 0.59 µM in experiment [3]; 100 µM in experiment [4]; 0.0052 µM in experiment [5]; 100 µM in experiment [6].

As for `CC(=O)c1cnc2ccc(-c3cc(Cl)c(O)c(Cl)c3)cc2c1N[C@H]1CC[C@H](NC(=O)CN(C)C)CC1` [Example 877, N-(1R,4R)-4-((3-acetyl-6-(3,5-dichloro-4-hydroxyphenyl)quinolin-4-yl)amino)cyclohexyl)-2-(dimethylamino)acetamide hydrochloride], the IC50 in experiment [1] came to 0.18 µM; in experiment [2], 0.11 µM; in experiment [3], 0.11 µM; in experiment [4], 2 µM; in experiment [5] it was 0.0027 µM; in experiment [6] it was 0.2 µM.

For `CN(C)CCOc1ccc(Nc2c(S(C)(=O)=O)cnc3ccc(-c4cc(F)c(O)c(Cl)c4)cc23)cn1` [Example 885, 2-chloro-4-(4-((6-(2-(dimethylamino)ethoxy)pyridin-3-yl)amino)-3-(methylsulfonyl)quinolin-6-yl)-6-fluorophenol hydrochloride], the IC50 in experiment [1] was found to be 2.5 µM; in experiment [2], 0.62 µM; in experiment [3] it was 0.7 µM; in experiment [4], 10 µM; in experiment [5] it was 0.0083 µM; in experiment [6], 3 µM.

As to `CC(=O)c1cnc2cc(F)c(-c3cc(F)c(O)c(Cl)c3)cc2c1N[C@H]1CC[C@H](CN2CCCC2)CC1` [Example 925, 1-(6-(3-chloro-5-fluoro-4-hydroxy-phenyl)-7-fluoro-4-((1R,4R)-4-(pyrrolidin-1-ylmethyl)cyclohexyl)amino)quinolin-3-yl)ethanone hydrochloride], the IC50 amounted to 0.27 µM in experiment [1]; 0.27 µM in experiment [2]; 0.52 µM in experiment [3]; 1.5 µM in experiment [4]; 0.019 µM in experiment [5]; 0.38 µM in experiment [6].

Take `CS(=O)(=O)c1cnc2ccc(-c3cc(F)c(O)c(Cl)c3)cc2c1Nc1ccc(N2CCCC(N)C2)nc1` (stereo not drawn) [Example 909, 4-(4-(6-(3-aminopiperidin-1-yl)pyridin-3-ylamino)-3-(methylsulfonyl)quinolin-6-yl)-2-chloro-6-fluorophenol]: the IC50 in experiment [1] worked out at 0.44 µM; in experiment [2] it was 0.042 µM; in experiment [3], 0.19 µM; in experiment [4], 10 µM; in experiment [5], 0.0016 µM; in experiment [6], 2.8 µM.

For the molecule `CC(=O)c1cnc2ccc(-c3cc(F)c(O)c(Cl)c3)cc2c1N[C@H]1CC[C@H](NC(=O)[C@@H]2CCCN2)CC1` [Example 921, (S)—N-((1R,4S)-4-(3-acetyl-6-(3-chloro-5-fluoro-4-hydroxyphenyl)quinolin-4-ylamino)cyclohexyl)pyrrolidine-2-carboxamide], the 50% inhibitory concentration (IC50) was 0.21 µM in experiment [1]; 0.068 µM in experiment [2]; 0.048 µM in experiment [3]; 10 µM in experiment [4]; 0.012 µM in experiment [5]; 1.2 µM in experiment [6].

Regarding `CC(=O)c1cnc2ccc(-c3ccc4nc[nH]c4c3)cc2c1Nc1ccc(N2CCN(C)CC2)nc1` [Example 901, 1-(6-(1H-benzo[d]imidazol-6-yl)-4-((6-(4-methylpiperazin-1-yl)pyridin-3-yl)amino)quinolin-3-yl)ethanone hydrochloride], the IC50 was 2.1 µM in experiment [1]; 9.5 µM in experiment [2]; 1.2 µM in experiment [3]; 9.1 µM in experiment [4]; 0.1 µM in experiment [5]; 2.3 µM in experiment [6].

Regarding `CC(=O)c1cnc2cc(F)c(-c3cc(F)c(O)c(Cl)c3)cc2c1N[C@H]1CC[C@H](CN(C)C)CC1` [Example 904, 1-(6-(3-chloro-5-fluoro-4-hydroxy-phenyl)-4-((1R,4R)-4-((dimethylamino)methyl)cyclohexyl)amino)-7-fluoro-quinolin-3-yl)ethanone hydrochloride], the IC50 in experiment [1] was 0.33 µM; in experiment [2], 0.26 µM; in experiment [3], 0.51 µM; in experiment [4], 1.6 µM; in experiment [5], 0.017 µM; in experiment [6] it was 0.43 µM.

Turning to `[2H]C([2H])([2H])N(C[C@H]1CC[C@H](Nc2c(C(C)=O)cnc3ccc(-c4cc(Cl)c(O)c(Cl)c4)cc23)CC1)C([2H])([2H])[2H]` [Example 864, 1-(6-(3,5-dichloro-4-hydroxyphenyl)-4-((trans-4-((dimethyl-d6-amino)methyl)cyclohexyl)amino)quinolin-3-yl)ethanone dihydrochloride], the IC50 in experiment [1] worked out at 0.081 µM; in experiment [2], 0.043 µM; in experiment [3], 0.067 µM; in experiment [4] it was 1.3 µM; in experiment [5], 0.0011 µM; in experiment [6] it was 0.11 µM.

For the molecule `CCC(=O)c1cnc2ccc(-c3cc(Cl)c(O)c(Cl)c3)cc2c1Nc1ccc(N2CCC[C@H](N)C2)nc1` [Example 934, (S)-1-(4-(6-(3-aminopiperidin-1-yl)pyridin-3-ylamino)-6-(3,5-dichloro-4-hydroxyphenyl)quinolin-3-yl)propan-1-one], the IC50 in experiment [1] was found to be 0.02 µM; in experiment [2], 0.016 µM; in experiment [3], 0.014 µM; in experiment [4], 0.6 µM; in experiment [5] it was 0.0012 µM; in experiment [6] it was 0.034 µM.

As to `CCN(CC)CCO[C@H]1CC[C@H](Nc2c(C(C)=O)cnc3ccc(-c4cc(F)c(O)c(Cl)c4)cc23)CC1` [Example 869, 1-(6-(3-chloro-5-fluoro-4-hydroxyphenyl)-4-((1R,4R)-4-(2-(diethylamino)ethoxy)cyclohexyl)amino)quinolin-3-yl)ethanone hydrochloride], the IC50 in experiment [1] worked out at 0.32 µM; in experiment [2], 0.26 µM; in experiment [3] it was 0.084 µM; in experiment [4] it was 0.7 µM; in experiment [5], 0.01 µM; in experiment [6], 0.23 µM.
